Columns and labels:
GLP-1R = molecular target: T1, GLP-1R (Homo sapiens, UniProt P43220); experiment: GLP-1 activity test (cAMP, chemiluminescence); type: cell-based
T1 construct: expressed in transfected cells; host or cells: CHO-K1
Method: (§1) Upon stimulation by a specific agonist, GLP-1R activates the intracellular adenylate cyclase signaling pathway, resulting in an increase in cAMP levels and ultimately leading to insulin production and secretion. A cell line stably transfected with GLP-1R was stimulated with test compounds, thereby rapidly increasing intracellular cAMP levels. The relative luminescence units (RLU) of cells stimulated at various concentrations were measured by a chemiluminescence method, and the EC50 value of the agonist was calculated accordingly. This activity test method is currently a commonly used method for evaluating GLP-1 receptor agonist activity both domestically and internationally. A CHO-K1 cell line stably expressing GLP-1R was used. The stable cells were stimulated with agonists at different concentrations, and the relative luminescence units after stimulation at each concentration were measured to calculate the EC50 value of the agonist.

[1] = Preliminary pharmacokinetic evaluation, plasma concentration by LC-MS; type: in vivo, cynomolgus monkeys; conditions: for half-life: cynomolgus monkey, male cynomolgus monkeys, subcutaneously (SC), 0.2 mg/kg, plasma; for half-lives: cynomolgus monkeys, administered subcutaneously
Method: The test animals were male cynomolgus monkeys. Two animals were used for each compound. The compounds were administered subcutaneously at a dose of 0.2 mg/kg. Blood samples were collected via intravenous sampling prior to administration (0 h) and at 1 h, 2 h, 3 h, 4 h, 8 h, 12 h, 18 h, 24 h, 48 h, 96 h, 144 h, and 168 h after administration. Plasma samples were obtained by centrifugation. The plasma concentrations of the compounds were respectively determined by liquid chromatography - mass spectrometry (LC-MS).

GCG-R = molecular target: T2, GCG-R (Homo sapiens, UniProt P47871); experiment: GCG activity test (cAMP, chemiluminescence); type: cell-based
T2 construct: expressed in transfected cells; host or cells: CHO-K1
T2 sequence (P47871 26-477, species assumed): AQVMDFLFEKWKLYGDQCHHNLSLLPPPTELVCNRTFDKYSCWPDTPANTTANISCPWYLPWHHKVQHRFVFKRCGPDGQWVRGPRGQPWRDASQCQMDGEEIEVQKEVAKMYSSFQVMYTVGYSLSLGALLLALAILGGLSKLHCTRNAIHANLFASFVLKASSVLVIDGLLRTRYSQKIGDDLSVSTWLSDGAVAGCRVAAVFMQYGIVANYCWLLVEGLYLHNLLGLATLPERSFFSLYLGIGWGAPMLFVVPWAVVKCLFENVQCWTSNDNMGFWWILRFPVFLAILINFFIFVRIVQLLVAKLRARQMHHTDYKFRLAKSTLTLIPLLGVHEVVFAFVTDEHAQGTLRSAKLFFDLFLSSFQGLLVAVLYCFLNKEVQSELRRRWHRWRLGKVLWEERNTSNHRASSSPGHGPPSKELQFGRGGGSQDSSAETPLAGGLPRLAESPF
Method: Upon stimulation by a specific agonist, GCG-R activates the intracellular adenylate cyclase signaling pathway, resulting in an increase in cAMP levels and ultimately leading to insulin production and secretion. A cell line stably transfected with GCG-R was stimulated with test compounds, thereby rapidly increasing intracellular cAMP levels. The relative luminescence units (RLU) of cells stimulated at various concentrations were measured by a chemiluminescence method, and the EC50 value of the agonist was calculated accordingly. This activity assay method is currently a commonly used method for evaluating GCG receptor agonist activity both domestically and internationally.
A CHO-K1 cell line stably expressing GCG-R was used. The stable cells were stimulated with agonists at different concentrations, and the relative luminescence units after stimulation at each concentration were measured to calculate the EC50 value of the agonist.

GIPR = molecular target: T3, GIPR (Homo sapiens, UniProt P48546); experiment: GIP activity test (cAMP, chemiluminescence); type: cell-based
T3 construct: expressed in transfected cells; host or cells: CHO-K1
T3 sequence (P48546 22-466): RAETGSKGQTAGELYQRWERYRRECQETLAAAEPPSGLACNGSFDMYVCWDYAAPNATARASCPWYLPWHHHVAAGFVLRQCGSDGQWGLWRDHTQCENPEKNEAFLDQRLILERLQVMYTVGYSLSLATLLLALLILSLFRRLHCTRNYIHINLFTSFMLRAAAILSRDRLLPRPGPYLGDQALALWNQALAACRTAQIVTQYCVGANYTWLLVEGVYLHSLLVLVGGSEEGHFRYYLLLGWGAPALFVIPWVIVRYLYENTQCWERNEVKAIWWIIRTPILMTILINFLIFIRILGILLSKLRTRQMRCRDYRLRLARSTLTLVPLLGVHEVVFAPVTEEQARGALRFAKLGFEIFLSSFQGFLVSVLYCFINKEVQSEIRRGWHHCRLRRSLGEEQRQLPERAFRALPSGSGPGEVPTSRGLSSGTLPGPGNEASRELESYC
Method: as §1, with “agonist, GIPR” for “agonist, GLP-1R”, “with GIPR” for “with GLP-1R”, “activity assay” for “activity test”, “evaluating GIP” for “evaluating GLP-1”, “expressing GIPR” for “expressing GLP-1R”

T1 sequence (P43220 24-463, species assumed): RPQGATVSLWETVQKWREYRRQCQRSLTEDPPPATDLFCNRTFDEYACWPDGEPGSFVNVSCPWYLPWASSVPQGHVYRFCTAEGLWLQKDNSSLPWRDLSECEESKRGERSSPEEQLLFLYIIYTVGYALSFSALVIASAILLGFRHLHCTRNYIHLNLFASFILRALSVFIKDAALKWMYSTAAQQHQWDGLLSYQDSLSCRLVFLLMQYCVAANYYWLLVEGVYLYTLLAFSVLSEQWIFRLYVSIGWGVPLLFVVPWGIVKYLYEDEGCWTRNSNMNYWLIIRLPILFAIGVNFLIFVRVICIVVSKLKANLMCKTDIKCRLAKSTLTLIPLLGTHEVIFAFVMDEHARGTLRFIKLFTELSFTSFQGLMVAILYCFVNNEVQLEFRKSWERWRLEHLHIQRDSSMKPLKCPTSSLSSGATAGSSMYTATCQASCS

## CC[C@H](C)[C@H](NC(=O)[C@H](Cc1ccccc1)NC(=O)[C@H](C)NC(=O)C(C)(C)NC(=O)[C@H](CCC(N)=O)NC(=O)[C@H](C)NC(=O)[C@H](CCCCNC(=O)COCCOCCNC(=O)CCC[C@H](NC(=O)CCCCCCCCCCCCCCCCCCC(=O)O)C(=O)O)NC(=O)[C@H](CCCCN)NC(=O)[C@H](CC(=O)O)NC(=O)[C@H](CC(C)C)NC(=O)C(C)(CC(C)C)NC(=O)[C@@H](NC(=O)[C@H](CO)NC(=O)[C@H](Cc1ccc(O)cc1)NC(=O)[C@H](CC(=O)O)NC(=O)[C@H](CO)NC(=O)[C@@H](NC(=O)C(C)(Cc1ccccc1)NC(=O)[C@@H](NC(=O)CNC(=O)[C@H](CCC(N)=O)NC(=O)C(C)(C)NC(=O)[C@@H](N)Cc1ccc(O)cc1)[C@@H](C)O)[C@@H](C)O)[C@@H](C)CC)C(=O)N[C@@H](CCC(=O)O)C(=O)N[C@@H](Cc1ccc(O)cc1)C(=O)N[C@@H](CC(C)C)C(=O)N[C@@H](CC(C)C)C(=O)N[C@@H](CCC(=O)O)C(=O)NCCCCC(=O)N1CCC[C@H]1C(=O)N[C@@H](CO)C(=O)N[C@@H](CO)C(=O)NCC(=O)N[C@@H](C)C(=O)N1CCC[C@H]1C(=O)N1CCC[C@H]1C(=O)N1CCC[C@H]1C(=O)N[C@@H](CO)C(N)=O (stereo partly shown) [Compound 2]
GLP-1R
  EC50: 0.0406 nM
[1]
  half-life: 108 h
  half-lives: greater than 100 hours
GCG-R
  EC50: 0.244 nM
GIPR
  EC50: 0.0181 nM

## CC[C@H](C)[C@H](NC(=O)[C@H](Cc1ccccc1)NC(=O)[C@H](C)NC(=O)C(C)(C)NC(=O)[C@H](CCC(N)=O)NC(=O)[C@H](C)NC(=O)[C@H](CCCCNC(=O)COCCOCCNC(=O)CCC[C@H](NC(=O)CCCCCCCCCCCCCCCCCCC(=O)O)C(=O)O)NC(=O)[C@H](CCCCN)NC(=O)[C@H](CC(=O)O)NC(=O)[C@H](CC(C)C)NC(=O)C(C)(CC(C)C)NC(=O)[C@@H](NC(=O)[C@H](CO)NC(=O)[C@H](Cc1ccc(O)cc1)NC(=O)[C@H](CC(=O)O)NC(=O)[C@H](CO)NC(=O)[C@@H](NC(=O)C(C)(Cc1ccccc1F)NC(=O)[C@@H](NC(=O)CNC(=O)[C@H](CCC(N)=O)NC(=O)C(C)(C)NC(=O)[C@@H](N)Cc1ccc(O)cc1)[C@@H](C)O)[C@@H](C)O)[C@@H](C)CC)C(=O)N[C@@H](CCC(=O)O)C(=O)N[C@@H](Cc1ccc(O)cc1)C(=O)N[C@@H](CC(C)C)C(=O)N[C@@H](CC(C)C)C(=O)N[C@@H](CCC(=O)O)C(=O)NCCCCC(=O)N1CCC[C@H]1C(=O)N[C@@H](CO)C(=O)N[C@@H](CO)C(=O)NCC(=O)N[C@@H](C)C(=O)N1CCC[C@H]1C(=O)N1CCC[C@H]1C(=O)N1CCC[C@H]1C(=O)N[C@@H](CO)C(N)=O (stereo partly shown) [Compound 6]
GLP-1R
  EC50: 0.0375 nM
[1]
  half-life: 115 h
  half-lives: greater than 100 hours
GCG-R
  EC50: 0.141 nM
GIPR
  EC50: 0.0188 nM
